In patent publication US7183445B2, “Cyclohexyl derivatives as selective estrogen receptor modulators” (Janssen Pharmaceutica N.V, priority 2004, dated 2007) one finds IC50 and EC50 data, which are given here for two compounds.

Assay [1] has as its target T1, human estrogen receptor α (Homo sapiens, UniProt P03372).
T1 construct: purchased Panvera
T1 sequence (P03372 1-595): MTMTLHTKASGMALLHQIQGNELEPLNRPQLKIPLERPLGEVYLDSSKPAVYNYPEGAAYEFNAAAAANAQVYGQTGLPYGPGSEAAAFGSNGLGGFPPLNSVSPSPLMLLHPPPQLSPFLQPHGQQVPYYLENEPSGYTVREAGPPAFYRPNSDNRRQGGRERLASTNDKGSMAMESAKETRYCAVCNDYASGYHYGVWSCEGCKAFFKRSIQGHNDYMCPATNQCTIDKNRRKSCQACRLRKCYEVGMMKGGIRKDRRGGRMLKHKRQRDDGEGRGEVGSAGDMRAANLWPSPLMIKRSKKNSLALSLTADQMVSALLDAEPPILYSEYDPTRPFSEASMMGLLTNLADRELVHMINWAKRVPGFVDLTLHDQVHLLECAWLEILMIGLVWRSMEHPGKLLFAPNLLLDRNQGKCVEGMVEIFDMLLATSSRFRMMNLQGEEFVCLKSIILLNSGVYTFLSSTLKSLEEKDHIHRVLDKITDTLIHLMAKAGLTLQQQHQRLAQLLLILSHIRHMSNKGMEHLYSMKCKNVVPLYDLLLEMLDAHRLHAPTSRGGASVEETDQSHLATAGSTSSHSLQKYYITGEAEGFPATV
Description: Estrogen Receptor α Flash Plate Assay. As to conditions: displacement of radio-labeled estrogen, FlashPlate; read-out: ERα Binding IC50. Here is the method: Estrogen Receptor α Flash Plate Assay
This assay monitors binding of radio-labeled estrogen to the estrogen receptor. It is performed on a BioMek 2000 (Beckman). Plates are read in a scintillation counter (Packard TopCount), with decreased counts an indication of binding of a compound to the receptor. The assay was run according to the procedure described by Allan, et al., Anal. Biochem. (1999), 275(2), 243–247.
On day one, 100 μL of Estrogen Screening Buffer (ESB, Panvera) containing 5 mM dithiothreitol (DTT, Panvera), 0.5 μg mouse anti-estrogen receptor monoclonal antibody (SRA-1010, Stressgen) and 50 ng purified human estrogen receptor α (Panvera) were added to each well of a 96 well FlashPlate Plus plate crosslinked with goat anti-mouse antibodies (NEN Life Sciences). The plate was sealed and incubated at 4° C. overnight.
On day two, each well was washed three times with 200 μL PBS, pH 7.2, at room temperature. To each well was then added 98 μL radio-labeled estrogen (0.5 nM, which equals 6 nCi for a 120 Ci/mmol batch, Amersham), diluted in ESB and 5 mM dithiothreitol (DTT). To individual wells were then added 2.5 μL test compound diluted in 30% (v/v) dimethyl sulfoxide/50 mM HEPES, pH 7.5. The wells were mixed three times by aspiration, the plate sealed and incubated at room temperature for one hour. The wells were then counted for 1 min in a TopCount scintillation counter (Packard).
(§1) Representative compound of the present invention were tested according to the procedure described above for binding to the Estrogen Receptor α and Estrogen Receptor β, with results as listed in Table 6.

In a further assay the target is T2, hER-β (Homo sapiens, UniProt Q92731).
T2 construct: purchased Panvera
Description: Estrogen Receptor β Fluorescence Polarization Assay. Particulars: displacement of Fluormone ES2, fluorescence polarization; read-out: ERβ Binding IC50.
Description: Estrogen Receptor β Fluorescence Polarization Assay
This assay monitors binding of a fluorescent analog of estrogen (Fluormone ES2, Panvera) to the estrogen receptor. Plates are read in a fluorometer that can be set to polarization mode. A decrease in […] relative to vehicle control is an indication of binding of a compound to the receptor.
It is crucial to avoid introduction of air bubbles into the reaction in each well of the 96 well plate throughout this procedure. (Bubbles on the surface of the reaction disrupt light flow, affecting the polarization reading.) However, it is also crucial to effectively mix the reaction components upon addition to the well.
On ice, a 2× standard mixture of Assay Buffer (Panvera), 10 nM DTT and 40 nM ES2 was prepared. On ice, a 2× reaction mixture of Assay Buffer (Panvera), and 20 nM hER-β (Panvera) and 40 nM ES2 was also prepared.
Dilutions of test compound were prepared in 30% (v/v) dimethyl sulfoxide/50 mM HEPES, pH 7.5. At this point, the dilutions were 40× the final required concentration.
The standard mixture at 50 μL was then added to each well. The reaction mixture at 48 μL was added to all wells. The compound dilution at 2.5 μL was added to the appropriate wells. The reaction mixtures were mixed using a manual pipette, a roll of aluminum foil adhesive cover was placed on the plate and the plate incubated at room temperature for 1 hour.
Each well on the plate was then read in an LjL Analyst with an excitation wavelength of […] and an emission wavelength of 538.
as §1

A further assay concerns MCF-7 cells. Description: MCF-7 Cell Proliferation Assay. It is filed as cell-based. Particulars: Homo sapiens, MCF7, 14C-thymidine incorporation; for EC50: agonist mode, read-out: MCF7 Agonist EC50; for IC50: antagonist mode, 10 nM 17β-estradiol added, read-out: MCF7 Antagonist IC50. Here is the method: MCF-7 Cell Proliferation Assay
This assay was run according to the procedure described by Welshons, et al., (Breast Cancer Res. Treat., 1987, 10(2), 169–75), with minor modification.
Briefly, MCF-7 cells (from Dr. C. Jordan, Northwestern University) were maintained in RPMI 1640 phenol red free medium (Gibco) in 10% FBS (Hyclone), supplemented with bovine insulin and non-essential amino acid (Sigma). The cells were initially treated with 4-hydroxytamoxifen (10^−8 M) and let stand at 37° C. for 24 hours. Following this incubation with tamoxifen, the cells were treated with compounds at various concentrations.
Compounds to be tested in the agonist mode were added to the culture media at varying concentrations. Compounds to be treated in the antagonist mode were prepared similarly, and 10 nM 17β-estradiol was also added to the culture media. The cells were incubated for 24 hours at 37° C. Following this incubation, 0.1 μCi of ^14C-thymidine (56mCi/mmol, Amersham) was added to the culture media and the cells were incubated for an additional 24 hours at 37° C. The cells were then washed twice with Hank's buffered salt solution (HBSS) (Gibco) and counted with a scintillation counter. The increase in the ^14C-thymidine in the compound treated cells relative to the vehicle control cells were reported as percent increase in cell proliferation.
(§2) Representative compound of the present invention were tested according to the procedure described in Examples 14 and 15 above, with results as listed in Table. 7.

In assay [2] the test system is Human Endometrial Ishikawa Cells. Description: Alkaline Phosphatase Assay in Human Endometrial Ishikawa Cells. It is filed as cell-based. Particulars: Homo sapiens, Ishikawa, 72 h, alkaline phosphatase activity, 3 days; for EC50: agonist mode, read-out: Ishikawa Agonist EC50; for IC50: antagonist mode, 10 nM 17β-estradiol added, read-out: Ishikawa Antagonist IC50. Here is the method: Alkaline Phosphatase Assay in Human Endometrial Ishikawa Cells
This assay was run according to the procedure described by Albert et a., Cancer Res, […], 50(11), 330-6-10, with minor modification.
Ishikawa cells (from ATCC) were maintained in DMEM/F12 (1:1) phenol red free medium (Gibco) supplemented with 10% calf serum (Hyclone). 24 hours prior to testing, the medium was changed to DMEM/F12 (1:1) phenol red free containing 2% calf serum.
Compounds to be tested in the agonist mode were added to the culture media at varying concentrations. Compounds to be treated in the antagonist mode were prepared similarly, and 10 nM 17β-estradiol was also added to the culture media. The cells were then incubated at 37° C. for 3 days. On the fourth day, the media was remove, 1 volume of 1× Dilution Buffer (Clontech) was added to the well followed by addition of 1 volume of Assay Buffer (Clontech). The cells were then incubated at room temperature for 5 minutes. 1 volume of freshly prepared Chemiluminescence Buffer (1 volume of chemiluminescent substrate (CSPD) in 19 volume Chemiluminescent Enhancer with final concentration of CSPD at 1.25 mM; Sigma Chemical Co.) was added. The cells were incubated at room temperature for 10 minutes and then quantified on a luminometer. The increase of chemiluminescence over vehicle control was used to calculate the increase in alkaline phosphatase activity.
as §2

T2 sequence (Q92731 whole entry): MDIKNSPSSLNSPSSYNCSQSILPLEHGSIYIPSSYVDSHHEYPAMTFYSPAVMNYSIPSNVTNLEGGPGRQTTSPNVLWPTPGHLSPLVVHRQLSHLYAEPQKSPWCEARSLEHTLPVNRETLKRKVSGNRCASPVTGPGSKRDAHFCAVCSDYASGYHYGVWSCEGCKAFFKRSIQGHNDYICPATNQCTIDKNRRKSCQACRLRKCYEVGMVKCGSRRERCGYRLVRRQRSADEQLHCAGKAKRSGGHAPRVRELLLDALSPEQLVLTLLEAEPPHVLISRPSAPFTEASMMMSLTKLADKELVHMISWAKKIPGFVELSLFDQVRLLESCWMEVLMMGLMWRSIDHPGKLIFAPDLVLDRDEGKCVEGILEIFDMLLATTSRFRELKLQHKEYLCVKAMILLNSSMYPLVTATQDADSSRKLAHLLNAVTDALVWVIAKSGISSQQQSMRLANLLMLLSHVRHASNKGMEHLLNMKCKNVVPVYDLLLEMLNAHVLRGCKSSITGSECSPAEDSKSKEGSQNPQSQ

As to `c1ccc(C2=C(c3ccccc3)CC3COCC3C2)cc1` (stereo not drawn) [Compound 52], the IC50 in assay [1] is > 10 µM; at hER-β, 5.7 µM; with MCF-7 cells it was > 10 µM; in assay [2], > 10 µM. The EC50 (in the assay with MCF-7 cells; in assay [2]) was > 10 µM in each case.
Consider `COc1ccc(C2=C(c3ccc(OC)cc3)CC3C(CC[C@@H]3O)C2)cc1` (stereo partly drawn) [Compound 61, 5,6-Bis-(4-methoxy-phenyl)-2,3,3a,4,7,7a-hexahydro-1H-inden-1S-ol], for which the IC50 in assay [1] was 8.7 µM; at hER-β, 2 µM; in the assay on MCF-7 cells, > 10 µM; in assay [2], > 10 µM. In addition, the EC50 (with MCF-7 cells; in assay [2]) was > 10 µM in each case.
